Consider 27 compounds from patent publication US20240279236A1, “COMPOUNDS AND METHODS OF TREATING TUBERCULOSIS” (Fimbrion Therapeutics, Inc., priority 2021, published 2024).

The structures appear in SMILES notation.

This assay deals with WT Mtb Erdman strain. In words: Microplate Alamar Blue Assay (MABA), Mtb growth inhibition. To be noted: Mycobacterium tuberculosis, ERDMAN, 168 h, Middlebrook 7H9 media, 7 days at 37° C. in 5% CO2. It counts as cell-based, Mycobacterium tuberculosis.
On to `COc1ccc(CCCNc2nc(SC)nc3sc(C)cc23)cc1` [Example 103, N-(3-(4-methoxyphenyl)propyl)-6-methyl-2-(methylthio)thieno[2,3-d]pyrimidin-4-amine], for which half-maximal inhibition (IC50) was put at 22 nM. This lies in the double-digit nanomolar range.
In the case of `CCc1nc(NCCc2ccccn2)c2cc(C)sc2n1` [Example 14, 2-ethyl-6-methyl-N-(2-(pyridin-2-yl)ethyl)thieno[2,3-d]pyrimidin-4-amine] it was greater than 10000 nM; in that of `COC(=O)c1ccc(-c2ccc(CCCNc3nc(-c4ccoc4)nc4sc(C)cc34)cc2)cc1` [Example 318, methyl 4′-(3-((2-(furan-3-yl)-6-methylthieno[2,3-d]pyrimidin-4-yl)amino)propyl)-[1,1′-biphenyl]-4-carboxylate], 20 nM.
Compound `CCc1nc(NCCCc2cccc(-c3ccc(OC(F)(F)F)cc3)c2)c2cc(C)sc2n1` [Example 269, 2-ethyl-6-methyl-N-(3-(4′-(trifluoromethoxy)-[1,1′-biphenyl]-3-yl)propyl)thieno [2,3-d]pyrimidin-4-amine] had a 50% inhibitory concentration (IC50) of 1100 nM.
As for `Cc1cc2c(N[C@@H]3C[C@H]3c3ccc(F)c(F)c3)nc(-c3ccccc3O)nc2s1` [Example 495, 2-(4-(((1R,2S)-2-(3,4-difluorophenyl)cyclopropyl)amino)-6-methylthieno[2,3-d]pyrimidin-2-yl)phenol], the figure is greater than 10000 nM; as for `Cc1cc2c(NCCCc3ccc(-c4ccc(C(C)(C)O)cc4)cc3)nc(-c3ccoc3)nc2s1` [Example 341, 2-[4′-(3-([2-(furan-3-yl)-6-methylthieno[2,3-d]pyrimidin-4-yl]amino)propy1)-[1,1′-biphenyl]-4-yl]propan-2-ol], 140 nM; as for `Cc1cc2c(NCCCc3ccc(-c4ccc(OC(F)(F)F)cc4)cc3)nc(C#N)nc2s1` [Example 605, 6-methyl-4-((3-[4′-(trifluoromethoxy)-[1,1′-biphenyl]-4-yl]propyl)amino)thieno[2,3-d]pyrimidine-2-carbonitrile], greater than 10000 nM.
Compound `Cc1cc2c(NCCCc3ccc(-c4ccc(F)nc4)cc3)nc(N(C)C)nc2s1` [Example 555, N4-(3-[4-(6-fluoropyridin-3-yl)phenyl]propyl)-N2,N2,6-trimethylthieno[2,3-d]pyrimidine-2,4-diamine] had an IC50 of 29 nM.
In the case of `Cc1cc2c(NCC(C)(C)Cc3ccccc3)nc(C(F)(F)F)nc2s1` [Example 186, N-(2,2-dimethyl-3-phenylpropyl)-6-methyl-2-(trifluoromethyl) thieno[2,3-d] pyrimidin-4-amine] it was greater than 10000 nM; in that of `COC(C)(C)c1nc(NCCCc2ccccc2)c2cc(C)sc2n1` [Example 116, 2-(2-methoxypropan-2-yl)-6-methyl-N-(3-phenylpropyl)thieno [2,3-d]pyrimidin-4-amine], greater than 10000 nM; in that of `Cc1cc2c(N[C@@H]3C[C@H]3c3ccc(F)c(F)c3)nc(-c3ccc(F)cc3F)nc2s1` [Example 499, 2-(2,4-difluorophenyl)-N-((1R,2S)-2-(3,4-difluorophenyl)cyclopropyl)-6-methylthieno[2,3-d]pyrimidin-4-amine], 3400 nM.
As for `Cc1cc2c(NCCCc3ccccc3)nc(-c3cccc(Cl)c3)nc2s1` [Example 91, 2-(3-chlorophenyl)-6-methyl-N-(3-phenylpropyl)thieno [2,3-d]pyrimidin-4-amine], the figure is 5900 nM; as for `Cc1cc2c(NCCCc3ccc(-c4ccc(C(F)(F)F)nn4)cc3)nc(-c3ccoc3)nc2s1` [Example 389, 2-(furan-3-yl)-6-methyl-N-(3-(4-[6-(trifluoro-methyl)pyridazin-3-yl]phenyl)propyl)thieno[2,3-d]pyrimidin-4-amine], 32 nM.
In the case of `Cc1cc2c(N[C@@H]3C[C@H]3c3ccc(F)c(F)c3)nc(-c3ccc(S(C)(=O)=O)cc3)nc2s1` [Example 492, N-((1R,2S)-2-(3,4-difluorophenyl)cyclopropyl)-6-methyl-2-(4-(methylsulfonyl)phenyl)thieno[2,3-d]pyrimidin-4-amine] it was greater than 10000 nM.
Regarding `CNS(=O)(=O)c1ccccc1-c1nc(N[C@@H]2C[C@H]2c2ccc(F)c(F)c2)c2cc(C)sc2n1` [Example 494, 2-(4-(((1R,2S)-2-(3,4-difluorophenyl)cyclopropyl)amino)-6-methylthieno[2,3-d]pyrimidin-2-yl)-N-methylbenzenesulfonamide], the IC50 is greater than 10000 nM.
As for `Cc1cc2c(NCCCN3CCCc4ccccc43)nc(C(F)(F)F)nc2s1` [Example 165, N-(3-(3,4-dihydroquinolin-1(2H)-yl)propyl)-6-methyl-2-(trifluoromethyl) thieno[2,3-d] pyrimidin-4-amine], the figure is 2000 nM; as for `CCc1nc(NCCc2ccc(Cl)c(Cl)c2)c2cc(C)sc2n1` [Example 127, N-(3,4-dichlorophenethyl)-2-ethyl-6-methylthieno[2,3-d]pyrimidin-4-amine], 2800 nM; as for `CCc1nc(NCCCc2ccccc2OC)c2cc(C)sc2n1` [Example 189, 2-ethyl-N-(3-(2-methoxyphenyl)propyl)-6-methylthieno[2,3-d]pyrimidin-4-amine], 2800 nM.
In the case of `Cc1cc2c(NCCCc3ccc(-c4ccccc4)cc3)nc(C(F)(F)F)nc2s1` [Example 268, N-(3-([1,1′-biphenyl]-4-yl)propyl)-6-methyl-2-(trifluoromethyl) thieno[2,3-d]pyrimidin-4-amine] it was 1200 nM; in that of `Cc1cc2c(NCCCc3ccccc3)nc(N3CCC3)nc2s1` [Example 510, 2-(azetidin-1-yl)-6-methyl-N-(3-phenylpropyl)thieno[2,3-d]pyrimidin-4-amine], 110 nM.
In the case of `Cc1cc2c(NCCCc3cc4ccccc4s3)nc(C(F)(F)F)nc2s1` [Example 230, N-(3-(benzo [b]thiophen-2-yl)propyl)-6-methyl-2-(trifluoromethyl) thieno [2,3-d]pyrimidin-4-amine], the IC50 came to 2500 nM.
As for `Cc1cc2c(NCCCc3ccc(O)cc3)nc(-c3ccc(F)cc3)nc2s1` [Example 83, 4-(3-((2-(4-fluorophenyl)-6-methylthieno[2,3-d]pyrimidin-4-yl)amino)propyl) phenol], the figure is 2500 nM.
In the case of `COc1cccc(CCCNc2nc(C(F)(F)F)nc3sc(C)cc23)c1` [Example 241, N-(3-(3-methoxyphenyl)propyl)-6-methyl-2-(trifluoromethyl) thieno[2,3-d] pyrimidin-4-amine] it was 3100 nM.
In the case of `CNc1nc(N[C@@H]2C[C@H]2c2ccc(F)c(F)c2)c2cc(C)sc2n1` [Example 525, N4-((1R,2S)-2-(3,4-difluorophenyl)cyclopropyl)-N2,6-dimethylthieno[2,3-d]pyrimidine-2,4-diamine] it was 4800 nM; in that of `CCc1nc(NCCc2cccc(OC)c2)c2cc(C)sc2n1` [Example 37, 2-ethyl-N-(3-methoxyphenethyl)-6-methylthieno[2,3-d]pyrimidin-4-amine], greater than 7900 nM; in that of `Cc1cc2c(NCCCc3ccccc3)nc(Cc3ccc(F)cc3)nc2s1` [Example 137, 2-(4-fluorobenzyl)-6-methyl-N-(3-phenylpropyl)thieno [2,3-d]pyrimidin-4-amine], greater than 10000 nM.
`Cc1cc2c(NCCCc3ccc(-c4ccc(C5CC5)cc4)cc3)nc(Cl)nc2s1` [Example 437, 2-chloro-N-(3-(4′-cyclopropyl-[1,1′-biphenyl]-4-yl)propyl)-6-methylthieno[2,3-d]pyrimidin-4-amine]: half-maximal inhibition (IC50) required 85 nM.
